Measurements taken from patent US10428151B2, “Treatment of hematologic malignancies with an anti-CXCR4 antibody” (BRISTOL-MYERS SQUIBB COMPANY, priority 2011, dated 2019).
“And” between values parts separate entries of the source, which are not always exact repeats. Equal entries are not always repeated.

What was measured:
Ramos tumor cells = assay: Ramos cell proliferation, 3H-thymidine incorporation; format: cell-based, human; details: 10^−3 to 300 nM; 72 hours
Procedure: In this example, the ability of the anti-CXCR4 human antibodies to inhibit proliferation of Ramos tumor cells (a human Burkitt's lymphoma cell line) in vitro was examined. […] The cells were incubated with antibody for 72 hours, with ^3H-thymidine being added for the final 24 hours of incubation to allow for monitoring of cell proliferation. Following the incubation, incorporation of ^3H-thymidine by the cells was measured by standard techniques. The results are shown in the graph of FIG. 11A.

Ramos cells [1] = assay: Ramos subcutaneous tumor cell model; format: in vivo, mouse; details: IP day 0 and 7; 15 mg/kg (Fab′ 10 mg/kg, also day 3 and 10)
Excerpt: In this example, the ability of the anti-CXCR4 human antibodies to inhibit proliferation of an established solid tumor in vivo was examined using a Ramos subcutaneous tumor cell model. In this assay, 10×10^6 Ramos cells/mouse were implanted into the flank region of each mouse and allowed to grow to a mean size of 40 mm^3, calculated by length×width×height/2 of the tumors. The mice then received an intraperitoneal (IP) injection of a first dose of antibody (designated as day 0 of treatment) and received a second IP dose of antibody on day 7. Mice treated with a Fab′ fragment antibody also received IP antibody doses on day 3 and day 10. […] Tumor volume and mouse body weight were measured at regular intervals (approximately 2-3 times/week) between day 0 and day 30 post dosing. The results of the experiment are presented in FIGS. 12A, 12B and 12C, which show mean tumor volume (FIG. 12A), median tumor volume (FIG. 12B) and median % body weight change (FIG. 12C). […] All treatments were well-tolerated as indicated by no significant body weight change. The differences in body weights between treatments were most likely due to the weights of the tumors.

Ramos cells [2] = assay: Ramos systemic tumor cell model, survival; format: in vivo, mouse; details: second experiment
Procedure: In this example, the ability of an anti-CXCR4 human antibody to increase survival time of mice was examined using a Ramos systemic tumor cell model. In this assay, 1×10^6 Ramos cells/mouse were injected intravenously (IV) into each mouse on Day 0. The mice then received an intraperitoneal (IP) injection of a first dose of antibody on Day 1 (i.e., one day after IV administration of tumor cells) and received four more IP doses of antibody, on days 5, 8, 15 and 22 (mice treated with the positive control antibody were treated only on day 1). […] Dose response studies had previously found 15 mg/kg to be an effective dose of anti-CD19 (data not shown). Percent survival was measured at regular intervals between Day 0 and Day 50 post dosing (hind leg paralysis was used as the endpoint of the experiment). […] The median numbers of days of survival for the mice treated with either vehicle or the isotype control were 23 and 25.5 days, respectively, whereas the median number of days of survival of the mice treated with one dose of the anti-CD19 positive control was 39 days.
The median number of days of survival for the mice treated with the vehicle or the isotype controls were 23-24 days, whereas the median number of days of survival of the mice treated with one dose of the anti-CD19 positive control was 39 days.

[3] = tested on: MDA-MB231 human breast cancer cells; assay: MDA-MB231 breast cancer xenograft; format: in vivo, mouse
Excerpt: In one experiment, 7.5×10^6 MDA-MB231 human breast cancer cells/mouse were implanted into the flank region of each mouse and allowed to grow to a mean size of 100 mm^3, calculated by length×width×height/2 of the tumors, which was day 7 post-implantation. The mice were randomized into different treatment groups and received an intraperitoneal (IP) injection of a first dose of antibody on day 7 post-implantation, received a second IP dose of antibody on day 14 post-implantation and then received a third dose on day 46 post-implantation. […] Tumor volumes were measured at regular intervals and the mean and median tumor volume determined for each treatment group at each interval.

[4] = tested on: DMS79 human small cell lung carcinoma cells; assay: DMS79 small cell lung carcinoma xenograft; format: in vivo, mouse; details: Day 34 post-implantation; 10 mg/kg IP Q3D×5
Procedure: In a second experiment, 5×10^6 DMS79 human small cell lung carcinoma cells/mouse were implanted into the flank region of each mouse and allowed to grow to a mean size of 160 mm^3, calculated by length×width×height/2 of the tumors, which was day 7 post-implantation. The mice were randomized into different treatment groups and received intraperitoneal (IP) injections of antibody on a dosing schedule of Q3D×5 (every three days for five times). […] Tumor volumes were measured at regular intervals and the mean and median tumor volume determined for each treatment group at each interval.

Ramos cells [5] = assay: Ramos lymphoma xenograft in SCID mice; format: in vivo
Procedure: When a mean and median tumor size of 80 mm^3 was reached, the mice were randomized (n=8) according to tumor volume. […] Tumors and body weights were measured twice weekly. Tumor volumes were measured in three dimensions (L×W×H/2) with a Fowler Electronic Digital Caliper (Model 62379-531; Fred V. Fowler Co., Newton, Mass.), and data was electronically recorded using Study Director software from StudyLog Systems, Inc. (South San Francisco, Calif.). Animals were checked daily for postural, grooming, and respiratory changes, as well as lethargy. Mice were euthanized when the tumors reached the 2000 mm^3 endpoint or appeared ulcerated.

MOLP-8 cells = assay: MOLP-8 MM xenograft in SCID mice; format: in vivo
Procedure: In all the experiments, the mice were injected intraperitoneally on Days 0 and 7 with an IgG4 isotype control and a PBS vehicle control.

[6] = tested on: Bortezomib-resistant JJN-3R cells; assay: JJN-3R MM xenograft in SCID mice; format: in vivo
KG-1 = KG-1 tumor growth inhibition (monotherapy); format: in vivo
CCRF-CEM = CCRF-CEM tumor growth inhibition (monotherapy); format: in vivo
CLL cells = details: Kashyap et al., 2012; cited from earlier work
[7] = tested on: Twist, Snail, Slug, E-Cadherin; details: Roccaro et al., 2012; cited from earlier work
[8] = Day 59 post-implantation, 15 mg/kg IP

## BMS-936564: fully human anti-CXCR4 monoclonal antibody; VH SEQ ID NO: 25, VL SEQ ID NO: 29
Ramos tumor cells
  inhibition of Ramos cell proliferation (3H-thymidine incorporation): able to inhibit Ramos cell proliferation
Ramos cells [1]
  tumor cell growth (tumor volume): significantly inhibited tumor cell growth
Ramos cells [2]; 15 mg/kg
  efficacy in prolonging mouse survival: highly efficacious in prolonging mouse survival
Ramos cells [2]; five doses 15 mg/kg, 120 days after implantation
  percent of mice survived at end of experiment: 100%
[3]; Day 52 post-implantation, 15 mg/kg IP
  Mean tumor volume: 79 mm^3
[3]; [8]
  Median tumor volume: 108 mm^3
  TGI (%) (median): 52%
[3]; day 59, n=9
  mice tumor free: one
[4]
  Mean tumor volume: 620 mm^3
  Median tumor volume: 599 mm^3
  TGI (%) (mean): 38%
Ramos cells [5]; 15 mg/kg/dose IP Days 0 and 7
  time the inhibition was maintained: 60 days
Ramos cells [5]; Day 21, 15 mg/kg/dose IP Days 0 and 7
  median growth inhibition: 99%
Ramos cells [5]; Ramos
  % Tumor Growth Inhibition (Monotherapy): 80%
MOLP-8 cells; Day 25, 10 mg/kg/dose, compared to isotype antibody control, 10 mg/kg
  delay of mean tumor growth: 66% and 56%
MOLP-8 cells; MOLP8
  tumor growth inhibition: MDX-1338 = 56%
MOLP-8 cells; MOLP-8
  % Tumor Growth Inhibition (Monotherapy): 66%
MOLP-8 cells; day 42
  mice remained at end of study: 5 out of 8
[6]; 30-mg/kg group
  mice tumor-free at the end of study: 4 out of 7
[6]; JJN3R
  % Tumor Growth Inhibition (Monotherapy): 97%
[6]; JJN-3R
  tumor growth inhibition: MDX-1338 = 100%
[6]; day 25, 10 or 30 mg/kg/dose IP, compared to isotype control
  median tumor growth inhibition: 100%
KG-1
  % Tumor Growth Inhibition (Monotherapy): 23%
CCRF-CEM
  % Tumor Growth Inhibition (Monotherapy): 72%
CLL cells
  inhibition of CXCL12-mediated F-actin polymerization in CLL cells: at lower concentrations than with AMD-3100
[7]
  effect on EMT-related proteins: inhibits the EMT-related proteins Twist, Snail and Slug, and up-regulates E-Cadherin
